Results reported in article PMC9921896 (Molecules, 2023).

How the values were obtained:
Test in all cases: CYP inhibition assay in HLM, single concentration
Format in all cases: biochemical
CYP2B6 = target: T1, CYP2B6 (Homo sapiens, UniProt P20813); conditions: human liver microsomes, probe Bupropion, n = 3, read-out: % Inhibition (CYP 2B6)
T1 construct: Using HLM as the enzyme source; from tissue; host or cells: human liver microsomes
T1 sequence (P20813 1-491): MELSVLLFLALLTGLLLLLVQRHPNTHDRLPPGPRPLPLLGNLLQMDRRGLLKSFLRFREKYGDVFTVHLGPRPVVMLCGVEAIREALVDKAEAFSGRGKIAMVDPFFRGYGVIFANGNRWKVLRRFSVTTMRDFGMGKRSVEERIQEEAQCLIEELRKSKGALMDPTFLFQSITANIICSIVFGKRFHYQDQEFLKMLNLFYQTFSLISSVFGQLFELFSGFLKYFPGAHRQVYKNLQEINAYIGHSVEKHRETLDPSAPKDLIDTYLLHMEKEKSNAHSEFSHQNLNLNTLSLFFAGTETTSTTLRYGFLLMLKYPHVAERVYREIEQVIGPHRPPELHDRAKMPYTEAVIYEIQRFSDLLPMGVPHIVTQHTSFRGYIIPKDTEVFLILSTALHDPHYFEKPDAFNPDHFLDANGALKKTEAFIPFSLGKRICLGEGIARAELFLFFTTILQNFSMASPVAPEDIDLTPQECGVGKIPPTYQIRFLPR
Method: (§1) The regulatory bodies and pharmaceutical firms are quite concerned about CYP inhibition. Therefore, medicinal chemists often change the lead structure to decrease CYP inhibition. If left uncorrected, it can cause DDIs, enhanced drug concentration, and, thus, toxicity.
(§2) Using HLM as the enzyme source, the CYP inhibition potential was employed to assess the inhibitory effect of the TbB ligands on the CYP1A2, 2B6, 2C8, 2C9, 2C19, and 2D6 3A4 isoforms. Phenacetin (CYP1A2, […]), tolbutamide (CYP2C9, 20 mM), bupropion (CYP2B6, […]), mephenytoin (CYP2C19, […]), midazolam (CYP3A4, 5 mM), amodiaquine (CYP2C8, 0.02 mM), and dextromethorphan (CYP2D6, 5 mM) were used as probe substrates. The test substance included TbB ligand (final concentrations of […] for each) and HLMs (final concentration of 0.1 mg protein per mL), with or without 1.0 mM NADPH. The reaction was started by adding pre-incubated 25 μ L of NADPH into all wells and incubate at 37 °C for 10 min for 3A4 and 20 min for remaining all isoforms. The reaction was stopped by adding 100 μ L of stop solution to all wells. The samples were centrifuged at 4000 rpm for 10 min at 4 °C. Supernatant (100 μ L) was withdrawn, mixed with 200 μ L of water followed by LC-MS/MS analysis.

CYP2C19 = target: T2, CYP2C19 (Homo sapiens, UniProt P33261); conditions: human liver microsomes, probe S-Mephenytoin, n = 3, read-out: % Inhibition (CYP 2C19)
T2 construct: Using HLM as the enzyme source; from tissue; host or cells: human liver microsomes
T2 sequence (P33261 whole entry): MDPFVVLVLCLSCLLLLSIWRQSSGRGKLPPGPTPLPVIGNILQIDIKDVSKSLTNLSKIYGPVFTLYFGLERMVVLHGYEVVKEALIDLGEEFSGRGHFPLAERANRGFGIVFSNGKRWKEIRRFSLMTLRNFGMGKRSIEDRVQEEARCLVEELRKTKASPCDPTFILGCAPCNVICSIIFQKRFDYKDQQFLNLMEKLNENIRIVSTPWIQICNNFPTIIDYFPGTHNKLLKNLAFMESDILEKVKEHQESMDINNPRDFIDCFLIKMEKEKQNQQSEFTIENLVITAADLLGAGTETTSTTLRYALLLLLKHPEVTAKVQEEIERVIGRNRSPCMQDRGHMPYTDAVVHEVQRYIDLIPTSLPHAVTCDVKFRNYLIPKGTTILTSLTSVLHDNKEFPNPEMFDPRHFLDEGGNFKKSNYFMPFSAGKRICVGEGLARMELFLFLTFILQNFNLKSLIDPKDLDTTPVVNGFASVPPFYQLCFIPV
Method: as §1, §2

CYP2C8 = target: T3, CYP2C8 (Homo sapiens, UniProt P10632); conditions: human liver microsomes, probe Amodiaquine, n = 3, read-out: % Inhibition (CYP 2C8)
T3 construct: Using HLM as the enzyme source; from tissue; host or cells: human liver microsomes
T3 sequence (P10632 1-490): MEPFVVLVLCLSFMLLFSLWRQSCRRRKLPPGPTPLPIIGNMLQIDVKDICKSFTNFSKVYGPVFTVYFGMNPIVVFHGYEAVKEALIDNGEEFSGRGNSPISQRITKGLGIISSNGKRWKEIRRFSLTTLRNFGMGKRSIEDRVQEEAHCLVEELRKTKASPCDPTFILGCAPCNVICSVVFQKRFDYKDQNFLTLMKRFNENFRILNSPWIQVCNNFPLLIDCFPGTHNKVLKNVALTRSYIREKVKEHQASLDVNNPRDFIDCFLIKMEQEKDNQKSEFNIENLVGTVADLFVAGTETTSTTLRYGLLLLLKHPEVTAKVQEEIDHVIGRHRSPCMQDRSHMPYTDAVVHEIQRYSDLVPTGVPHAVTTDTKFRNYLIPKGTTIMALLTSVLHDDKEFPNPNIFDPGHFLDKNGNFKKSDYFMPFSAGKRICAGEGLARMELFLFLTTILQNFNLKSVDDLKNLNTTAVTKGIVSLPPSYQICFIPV
Method: as §1, §2

CYP2D6 = target: T4, CYP2D6 (Homo sapiens, UniProt P10635); conditions: human liver microsomes, probe Dextromethorphan, n = 3, read-out: % Inhibition (CYP 2D6)
T4 construct: Using HLM as the enzyme source; from tissue; host or cells: human liver microsomes
T4 sequence (P10635 whole entry): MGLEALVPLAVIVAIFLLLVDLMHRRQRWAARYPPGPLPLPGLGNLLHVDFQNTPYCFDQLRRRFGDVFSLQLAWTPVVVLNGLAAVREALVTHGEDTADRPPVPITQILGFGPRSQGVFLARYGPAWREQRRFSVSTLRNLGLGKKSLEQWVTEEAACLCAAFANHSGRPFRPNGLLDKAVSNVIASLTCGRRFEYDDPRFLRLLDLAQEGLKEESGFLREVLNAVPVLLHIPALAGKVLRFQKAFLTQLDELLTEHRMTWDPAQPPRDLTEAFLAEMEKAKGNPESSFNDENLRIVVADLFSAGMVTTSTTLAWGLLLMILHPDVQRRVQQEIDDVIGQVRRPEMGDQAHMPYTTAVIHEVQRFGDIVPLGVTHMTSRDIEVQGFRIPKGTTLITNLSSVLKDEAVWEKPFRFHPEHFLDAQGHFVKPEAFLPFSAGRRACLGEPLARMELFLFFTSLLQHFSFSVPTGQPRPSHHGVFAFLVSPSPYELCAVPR
Method: as §1, §2

Compound | inhibition at 20 min, 10 µM (CYP2B6) | inhibition at 20 min, 10 µM (CYP2C19) | inhibition at 20 min, 10 µM (CYP2C8) | inhibition at 20 min, 10 µM (CYP2D6)
COc1cc(-c2nnn(-c3cc(OC)c(O)c(OC)c3)n2)cc(OC)c1O [223-2] | 47% | -2% | 39% | -2%
Cc1cc(-c2nnn(-c3cc(C)c(O)c(C)c3)n2)cc(C)c1O [223-3] | 80% | 84% | 88% | 96%
Oc1ccc(-c2nnn(-c3ccc(O)cc3)n2)cc1 [223-10] | 54% | 33% | 82% | -4%
